Read-outs that look alike come from different tables or passages of the source. Starred links: 1 amine or outer side, 2 acyl side, 3 side chain; linkers in the order of their positions; H or OH if unused. Non-standard residues stand in square brackets, D forms with d. Residues, ends and D or L forms follow the SMILES beside them. Groups on a side chain read outwards from the residue. *: point of attachment. C18 diacid = O=C(O)CCCCCCCCCCCCCCCCC(=O)*; C16 diacid = O=C(O)CCCCCCCCCCCCCCC(=O)*; γGlu = O=C(O)[C@H](CCC(=O)[*:2])N[*:1]; Glutaryl = O=C(CCCC(=O)[*:2])[*:1]; Nle = CCCC[C@H](N)C(=O)O; AEEA = NCCOCCOCC(=O)O; Aib = CC(C)(N)C(=O)O
Legend:
human GIP receptor = target: T1, human GIP receptor (Homo sapiens, UniProt P48546); test: cAMP assay Alternative 2 (Gaddum assay), antagonist potency pKb; assay type: cell-based
T1 construct: host or cells: HEK-293 cells, transient transfection (Lipofectamine 2000), cDNA in pCMV-Script vector
T1 sequence (P48546 22-466): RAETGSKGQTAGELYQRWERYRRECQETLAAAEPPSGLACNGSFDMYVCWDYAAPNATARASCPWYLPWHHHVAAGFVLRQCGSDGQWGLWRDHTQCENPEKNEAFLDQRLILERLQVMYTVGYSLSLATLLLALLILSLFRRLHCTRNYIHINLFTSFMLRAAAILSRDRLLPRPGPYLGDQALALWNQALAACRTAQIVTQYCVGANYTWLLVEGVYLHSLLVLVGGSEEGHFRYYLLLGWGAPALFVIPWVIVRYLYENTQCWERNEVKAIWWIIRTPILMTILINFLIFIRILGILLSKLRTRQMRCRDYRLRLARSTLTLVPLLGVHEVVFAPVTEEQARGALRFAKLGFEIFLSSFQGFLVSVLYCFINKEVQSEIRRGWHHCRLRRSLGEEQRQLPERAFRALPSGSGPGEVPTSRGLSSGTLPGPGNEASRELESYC
Experimental: HEK293 cells were cultured in 10% CO2 and 37° C. in Dulbecco's modified Eagle's medium supplemented with 10% fetal bovine serum, 2 mM glutamine, 180 units/ml penicillin, and 45 µg/ml streptomycin. Transient transfection with hGIPR for the CisBio assay from Table 2C was performed by using Lipofectamine 2000.
Antagonist potency (pKb) was estimated in a functional setting. The estimated pKb values were calculated from the shifts of the agonist-concentration-response curves in the presence of a single dose of GIP peptide antagonists using the Gaddum equation: pKb=log(DR-1)-log(B), where DR (EC50′/EC50) is the dose ratio calculated from EC50 of GIP1-42 obtained in the presence and absence (EC50) of antagonist, and B is the antagonist concentration used.
The in vitro functional assessment of compounds towards human GIP receptor was determined in HEK-293 cells transiently expressing the receptor. On the day of the assay, cells were resuspended in HBSS buffer (Gibco, 14025-50) supplemented with […] (Gibco, 15630-106), 0.1% Pluronic F-68 (Gibco, 24040-032) and 0.1% casein (Sigma, C4765), and plated in 384-well plates at a density of 3500 cells/well. The GIP peptide analogues of the present disclosure were diluted in HBSS buffer supplemented with 20 mM HEPES, 0.1% pluronic, 0.1% casein and 500 uM IBMX. […] Increasing dose of agonist (GIP1-42) was subsequently added to cells and incubated for additionally 30 min at 37° C. The intracellular cAMP was quantitatively determined using the CisBio cAMP Dynamic 2 HTRF Assay Kit. The assay is based on a competition between native cAMP produced by cells and cAMP labeled with the dye d2 for binding to a cryptate labeled antibody. The specific signal (i.e. energy transfer signal) is inversely proportional to the concentration of cAMP in the sample.
The cAMP-d2 conjugate and the antibody anti-cAMP-Cryptate, both diluted in lysis buffer provided in the kit, were added to the cells according to the manufacturer's protocol. The resulting competitive assay was incubated for 60 minutes at room temperature, and the signal was detected by using a PerkinElmer Envision® instrument with excitation at 320 nm and emission at 665 nm and 620 nm. The HTRF ratio (emission at 665 nm/620 nm*10,000) is inversely proportional to the amount of cAMP present and is converted to nM cAMP per well using a cAMP standard curve.

[1] = Physical stability: fibril formation in Thioflavin T (ThT) assay with agitation; assay type: physicochemical; settings: 25° C., agitation
How it was run: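 Peptides at 1, 5, 7.5 or 15 mg/ml in 50 mM sodium phosphate pH 7.4 or in water adjusted to pH 7.4 with NaOH, filtered 0.22 μm, with ThT added. Wells held a 3 mm silica bead under 300 rpm orbital agitation at 25° C. Emission at 486 nm tracked continuously; lag time = 10% of transition above baseline.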

[2] = Solubility by visual inspection of peptide solutions; assay type: physicochemical
How it was run: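 Peptides dissolved at 1, 5, 7.5 or 15 mg/ml in 50 mM sodium phosphate pH 7.4 or water adjusted to pH 7.4 with NaOH, with gentle mixing. Immediate solubility judged visually as a clear, colorless solution.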

[3] = Table 2C, Gaddum equation, single antagonist dose, HEK-293 hGIPR, read-out: nM (Kb)

| SMILES | Kb (human GIP receptor; [3]) | Avr lag time (h) ([1]; 1 mg/ml, TFA, Phosphate (7.4)) | Visual appearance ([2]; 1 mg/ml, TFA, Phosphate (7.4)) | Kb (human GIP receptor) | Avr lag time ([1]; 1 mg/ml, TFA, Phosphate (7.4)) | Avr lag time (h) ([1]; 7.5 mg/ml, Na, MilliQ (8)) | Avr lag time (h) ([1]; 15 mg/ml, Na, MilliQ (8)) | Visual appearance ([2]; 7.5 mg/ml, Na, MilliQ (8)) | Visual appearance ([2]; 15 mg/ml, Na, MilliQ (8)) |
| --- | --- | --- | --- | --- | --- | --- | --- | --- | --- |
| CC[C@H](C)[C@H](NC(=O)[C@H](CCCCN)NC(=O)[C@H](CCC(=O)O)NC(=O)[C@H](CC(C)C)NC(=O)C(C)(C)NC(=O)[C@@H](NC(=O)[C@H](CO)NC(=O)[C@H](Cc1ccc(O)cc1)NC(=O)[C@H](CCC(=O)O)NC(=O)[C@H](CO)NC(=O)[C@@H](NC(=O)[C@H](Cc1ccccc1)NC(=O)[C@@H](NC(=O)CNC(=O)[C@@H](N)CCC(=O)O)[C@@H](C)O)[C@@H](C)CC)[C@@H](C)CC)C(=O)N[C@@H](CCCCNC(=O)COCCOCCNC(=O)COCCOCCNC(=O)CC[C@H](NC(=O)CCCCCCCCCCCCCCCCC(=O)O)C(=O)O)C(=O)N[C@@H](CCC(N)=O)C(=O)N[C@@H](CCC(N)=O)C(=O)N[C@@H](CC(=O)O)C(=O)N[C@@H](Cc1ccccc1)C(=O)N[C@H](C(=O)N[C@@H](CCC(=O)O)C(=O)N[C@@H](Cc1c[nH]c2ccccc12)C(=O)N[C@@H](CC(C)C)C(=O)N[C@@H](CC(C)C)C(=O)N[C@@H](C)C(=O)N[C@@H](CCC(N)=O)C(=O)N[C@@H](CCCCN)C(=O)N1CCC[C@H]1C(=O)N[C@@H](CO)C(=O)N[C@@H](CO)C(=O)NCC(=O)N[C@@H](C)C(=O)N1CCC[C@H]1C(=O)N1CCC[C@H]1C(=O)N1CCC[C@H]1C(=O)N[C@@H](CO)C(=O)O)C(C)C [AT754] (H-EGTFISEYSI[Aib]LEKIK([AEEA-AEEA-γGlu-C18 diacid])QQDFVEWLLAQKPSSGAPPPS-OH; N-terminus assumed) | 2.2 nM | fnd (Fnd = fibrils not detected within experiment time (96 hours) with agitation.) | Clear | – | – | – | – | – | – |
| CC[C@H](C)[C@H](NC(=O)[C@H](CO)NC(=O)[C@H](Cc1ccc(O)cc1)NC(=O)[C@H](CC(=O)O)NC(=O)[C@H](CO)NC(=O)[C@@H](NC(=O)[C@H](Cc1ccccc1)NC(=O)[C@@H](NC(=O)CNC(=O)[C@@H](N)CCC(=O)O)[C@@H](C)O)[C@@H](C)CC)C(=O)N[C@@H](C)C(=O)N[C@@H](CCSC)C(=O)N[C@@H](CC(=O)O)C(=O)N[C@@H](CCCCNC(=O)CCCCCCCCCCCCCCC(=O)O)C(=O)N[C@H](C(=O)N[C@@H](Cc1c[nH]cn1)C(=O)N[C@@H](CCC(N)=O)C(=O)N[C@@H](CCC(N)=O)C(=O)N[C@@H](CC(=O)O)C(=O)N[C@@H](Cc1ccccc1)C(=O)N[C@H](C(=O)N[C@@H](CCC(=O)O)C(=O)N[C@@H](Cc1c[nH]c2ccccc12)C(=O)N[C@@H](CC(C)C)C(=O)N[C@@H](CC(C)C)C(=O)N[C@@H](C)C(=O)N[C@@H](CCC(N)=O)C(=O)N[C@@H](CCCCN)C(=O)N1CCC[C@H]1C(=O)N[C@@H](CO)C(=O)N[C@@H](CO)C(=O)NCC(=O)N[C@@H](C)C(=O)N1CCC[C@H]1C(=O)N1CCC[C@H]1C(=O)N1CCC[C@H]1C(=O)N[C@@H](CO)C(=O)O)C(C)C)[C@@H](C)CC [AT741] (H-EGTFISDYSIAMDK(C16 diacid)IHQQDFVEWLLAQKPSSGAPPPS-OH; N-terminus assumed) | – | fnd (Fnd = fibrils not detected within experiment time (96 hours) with agitation.) | Clear | 11 nM | – | – | – | – | – |
| CC[C@H](C)[C@H](NC(=O)[C@H](CO)NC(=O)[C@H](Cc1ccc(O)cc1)NC(=O)[C@H](CC(=O)O)NC(=O)[C@H](CO)NC(=O)[C@@H](NC(=O)[C@H](Cc1ccccc1)NC(=O)[C@@H](NC(=O)CNC(=O)[C@@H](N)CCC(=O)O)[C@@H](C)O)[C@@H](C)CC)C(=O)N[C@@H](C)C(=O)N[C@@H](CCSC)C(=O)N[C@@H](CC(=O)O)C(=O)N[C@@H](CCCCN)C(=O)N[C@H](C(=O)N[C@@H](CCCCNC(=O)CCCCCCCCCCCCCCC(=O)O)C(=O)N[C@@H](CCC(N)=O)C(=O)N[C@@H](CCC(N)=O)C(=O)N[C@@H](CC(=O)O)C(=O)N[C@@H](Cc1ccccc1)C(=O)N[C@H](C(=O)N[C@@H](CCC(=O)O)C(=O)N[C@@H](Cc1c[nH]c2ccccc12)C(=O)N[C@@H](CC(C)C)C(=O)N[C@@H](CC(C)C)C(=O)N[C@@H](C)C(=O)N[C@@H](CCC(N)=O)C(=O)N[C@@H](CCCCN)C(=O)O)C(C)C)[C@@H](C)CC [AT749] (H-EGTFISDYSIAMDKIK(C16 diacid)QQDFVEWLLAQK-OH; N-terminus assumed) | 2.2 nM | – | Clear | – | <24 h | – | – | – | – |
| CCCC[C@H](NC(=O)C(C)(C)NC(=O)[C@@H](NC(=O)[C@H](CO)NC(=O)[C@H](Cc1ccc(O)cc1)NC(=O)[C@H](CCC(=O)O)NC(=O)[C@H](CO)NC(=O)[C@@H](NC(=O)[C@H](Cc1ccccc1)NC(=O)[C@@H](NC(=O)CNC(=O)CCCC(=O)O)[C@@H](C)O)[C@@H](C)CC)[C@@H](C)CC)C(=O)N[C@@H](CCC(=O)O)C(=O)N[C@@H](CCCCN)C(=O)N[C@H](C(=O)N[C@@H](CCCCNC(=O)CCCCCCCCCCCCCCC(=O)O)C(=O)N[C@@H](CCC(N)=O)C(=O)N[C@@H](CCC(N)=O)C(=O)N[C@@H](CCC(=O)O)C(=O)N[C@@H](Cc1ccccc1)C(=O)N[C@H](C(=O)N[C@@H](CCC(=O)O)C(=O)N[C@@H](Cc1c[nH]c2ccccc12)C(=O)N[C@@H](CC(C)C)C(=O)N[C@@H](CC(C)C)C(=O)N[C@@H](C)C(=O)N[C@@H](CCC(N)=O)C(=O)N[C@@H](CCCCN)C(=O)N1CCC[C@H]1C(=O)N[C@@H](CO)C(=O)N[C@@H](CO)C(=O)NCC(=O)N[C@@H](C)C(=O)N1CCC[C@H]1C(=O)N1CCC[C@H]1C(=O)N1CCC[C@H]1C(=O)N[C@@H](CO)C(=O)O)C(C)C)[C@@H](C)CC [AT755] (Glutaryl-GTFISEYSI[Aib][Nle]EKIK(C16 diacid)QQEFVEWLLAQKPSSGAPPPS-OH) | 0.23 nM | fnd (Fnd = fibrils not detected within experiment time (96 hours) with agitation.) | Clear | – | – | – | – | – | – |
| CC[C@H](C)[C@H](NC(=O)[C@H](CCCCN)NC(=O)[C@H](CCC(=O)O)NC(=O)[C@H](CC(C)C)NC(=O)C(C)(C)NC(=O)[C@@H](NC(=O)[C@H](CO)NC(=O)[C@H](Cc1ccc(O)cc1)NC(=O)[C@H](CCC(=O)O)NC(=O)[C@H](CO)NC(=O)[C@@H](NC(=O)[C@H](Cc1ccccc1)NC(=O)[C@@H](NC(=O)CNC(=O)[C@@H](N)CCC(=O)O)[C@@H](C)O)[C@@H](C)CC)[C@@H](C)CC)C(=O)N[C@@H](CCCCNC(=O)C(C)(C)NC(=O)CCCCCCCCCCCCCCC(=O)O)C(=O)N[C@@H](CCC(N)=O)C(=O)N[C@@H](CCC(N)=O)C(=O)N[C@@H](CCC(=O)O)C(=O)N[C@@H](Cc1ccccc1)C(=O)N[C@H](C(=O)N[C@@H](CCC(=O)O)C(=O)N[C@@H](Cc1c[nH]c2ccccc12)C(=O)N[C@@H](CC(C)C)C(=O)N[C@@H](CC(C)C)C(=O)N[C@@H](C)C(=O)N[C@@H](CCC(N)=O)C(=O)N[C@@H](CCCCN)C(=O)N1CCC[C@H]1C(=O)N[C@@H](CO)C(=O)N[C@@H](CO)C(=O)NCC(=O)N[C@@H](C)C(=O)N1CCC[C@H]1C(=O)N1CCC[C@H]1C(=O)N1CCC[C@H]1C(=O)N[C@@H](CO)C(=O)O)C(C)C [AT720] (H-EGTFISEYSI[Aib]LEKIK([Aib-C16 diacid])QQEFVEWLLAQKPSSGAPPPS-OH; N-terminus assumed) | 0.29 nM | – | – | – | – | fnd (Fnd = fibrils not detected within experiment time (96 hours) with agitation.) | fnd (Fnd = fibrils not detected within experiment time (96 hours) with agitation.) | Clear | Clear |

Reference: patent US20230416330A1, “Optimized GIP Peptide Analogues” (Antag Therapeutics ApS, priority 2019, published 2023)
